Test results reported in the supplement of paper PMC10307832.

Experiments:
Assay in all cases: relative viability (nuclei count vs DMSO), 5 days (fraction); higher = more cells survive
[1] = tested on: HARA
Summary of the method: (§1)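 Lung cancer cell lines in 1536-well plates got either a single drug or a fixed anchor-drug dose together with five library-drug doses (not always all listed) in √10 steps, by pin tool, on the day after seeding. Nuclei were counted after 5 days, and relative viability is the treated-to-vehicle ratio of nuclei counts. Values are medians of duplicate plates.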

[2] = tested on: NCI-H2170
Summary of the method: as §1

[3] = tested on: LXF-289
Summary of the method: as §1

[4] = tested on: HOP-62
Summary of the method: as §1

[5] = tested on: NCI-H1993
Summary of the method: as §1

[6] = tested on: SK-LU-1
Summary of the method: as §1

[7] = tested on: NCI-H2009
Summary of the method: as §1

[8] = tested on: NCI-H3122
Summary of the method: as §1

[9] = tested on: SK-MES-1
Summary of the method: as §1

[10] = tested on: A-427
Summary of the method: as §1

[11] = tested on: COR-L23
Summary of the method: as §1

[12] = tested on: NCI-H2228
Summary of the method: as §1

[13] = tested on: NCI-H1793
Summary of the method: as §1

[14] = tested on: ABC-1
Summary of the method: as §1

[15] = tested on: NCI-H727
Summary of the method: as §1

[16] = tested on: SW 1573
Summary of the method: as §1

[17] = tested on: NCI-H1792
Summary of the method: as §1

[18] = tested on: NCI-H596
Summary of the method: as §1

[19] = tested on: PC-3 [JPC-3]
Summary of the method: as §1

[20] = tested on: LK-2
Summary of the method: as §1

[21] = tested on: NCI-H1944
Summary of the method: as §1

[22] = tested on: EMC-BAC-2
Summary of the method: as §1

For `NC(=O)Nc1cc(-c2cccc(F)c2)sc1C(=O)N[C@H]1CCCNC1` [AZD7762] + CS(=O)(=O)N1CCN(Cc2cc3nc(-c4cccc5[nH]ncc45)nc(N4CCOCC4)c3s2)CC1 [Pictilisib] (partner 1 µM), the relative viability ([1]; first compound 0.01 µM) was 0.346, the relative viability ([1]; first compound 0.03162 µM) was 0.435 and the relative viability ([1]; first compound 0.1 µM) was 0.353. It also gave a relative viability ([1]; first compound 0.3162 µM) of 0.412, a relative viability ([1]; first compound 1 µM) of 0.32 and a relative viability ([2]; first compound 0.01 µM) of 0.322. It also gave a relative viability ([2]; first compound 0.03162 µM) of 0.338, a relative viability ([2]; first compound 0.1 µM) of 0.326 and a relative viability ([2]; first compound 0.3162 µM) of 0.292. The relative viability ([2]; first compound 1 µM) was 0.247, the relative viability ([3]; first compound 0.01 µM) was 0.754 and the relative viability ([3]; first compound 0.03162 µM) was 0.875. For the same compound, the relative viability ([3]; first compound 0.1 µM) was 0.809, the relative viability ([3]; first compound 0.3162 µM) was 0.855 and the relative viability ([3]; first compound 1 µM) was 0.813. The relative viability ([4]; first compound 0.01 µM) was 0.501, the relative viability ([4]; first compound 0.03162 µM) was 0.801 and the relative viability ([4]; first compound 0.1 µM) was 0.833. For the same compound, the relative viability ([4]; first compound 0.3162 µM) was 0.645, the relative viability ([4]; first compound 1 µM) was 0.268 and the relative viability ([5]; first compound 0.01 µM) was 0.823. The relative viability ([5]; first compound 0.03162 µM) was 0.925, the relative viability ([5]; first compound 0.1 µM) was 0.717 and the relative viability ([5]; first compound 0.3162 µM) was 0.725. For the same compound, the relative viability ([5]; first compound 1 µM) was 0.704, the relative viability ([6]; first compound 0.01 µM) was 0.694 and the relative viability ([6]; first compound 0.03162 µM) was 0.644. For the same compound, the relative viability ([6]; first compound 0.1 µM) was 0.337, the relative viability ([6]; first compound 0.3162 µM) was 0.176 and the relative viability ([6]; first compound 1 µM) was 0.2. It also gave a relative viability ([7]; first compound 0.01 µM) of 0.867, a relative viability ([7]; first compound 0.03162 µM) of 0.865 and a relative viability ([7]; first compound 0.1 µM) of 0.909. The relative viability ([7]; first compound 0.3162 µM) was 0.677, the relative viability ([7]; first compound 1 µM) was 0.321 and the relative viability ([8]; first compound 0.01 µM) was 0.623. For the same compound, the relative viability ([8]; first compound 0.03162 µM) was 0.646, the relative viability ([8]; first compound 0.1 µM) was 0.638 and the relative viability ([8]; first compound 0.3162 µM) was 0.333. For the same compound, the relative viability ([8]; first compound 1 µM) was 0.332, the relative viability ([9]; first compound 0.01 µM) was 0.353 and the relative viability ([9]; first compound 0.03162 µM) was 0.322. It also gave a relative viability ([9]; first compound 0.1 µM) of 0.358, a relative viability ([9]; first compound 0.3162 µM) of 0.331 and a relative viability ([9]; first compound 1 µM) of 0.25. For the same compound, the relative viability ([10]; first compound 0.01 µM) was 0.654, the relative viability ([10]; first compound 0.03162 µM) was 0.879 and the relative viability ([10]; first compound 0.1 µM) was 0.762. The relative viability ([10]; first compound 0.3162 µM) was 0.734, the relative viability ([10]; first compound 1 µM) was 0.49 and the relative viability ([11]; first compound 0.01 µM) was 0.743. The relative viability ([11]; first compound 0.03162 µM) was 0.86, the relative viability ([11]; first compound 0.1 µM) was 0.818 and the relative viability ([11]; first compound 0.3162 µM) was 0.68. The relative viability ([11]; first compound 1 µM) was 0.288, the relative viability ([12]; first compound 0.01 µM) was 0.381 and the relative viability ([12]; first compound 0.03162 µM) was 0.539. The relative viability ([12]; first compound 0.1 µM) was 0.396, the relative viability ([12]; first compound 0.3162 µM) was 0.21 and the relative viability ([12]; first compound 1 µM) was 0.136. The relative viability ([13]; first compound 0.01 µM) was 0.388, the relative viability ([13]; first compound 0.03162 µM) was 0.371 and the relative viability ([13]; first compound 0.1 µM) was 0.336. For the same compound, the relative viability ([13]; first compound 0.3162 µM) was 0.278, the relative viability ([13]; first compound 1 µM) was 0.224 and the relative viability ([14]; first compound 0.01 µM) was 0.72. For the same compound, the relative viability ([14]; first compound 0.03162 µM) was 0.84, the relative viability ([14]; first compound 0.1 µM) was 0.611 and the relative viability ([14]; first compound 0.3162 µM) was 0.462. For the same compound, the relative viability ([14]; first compound 1 µM) was 0.245, the relative viability ([15]; first compound 0.01 µM) was 0.429 and the relative viability ([15]; first compound 0.03162 µM) was 0.346. For the same compound, the relative viability ([15]; first compound 0.1 µM) was 0.321, the relative viability ([15]; first compound 0.3162 µM) was 0.243 and the relative viability ([15]; first compound 1 µM) was 0.269. For the same compound, the relative viability ([16]; first compound 0.01 µM) was 0.569, the relative viability ([16]; first compound 0.03162 µM) was 0.479 and the relative viability ([16]; first compound 0.1 µM) was 0.554. The relative viability ([16]; first compound 0.3162 µM) was 0.54, the relative viability ([16]; first compound 1 µM) was 0.451 and the relative viability ([17]; first compound 0.01 µM) was 0.323. For the same compound, the relative viability ([17]; first compound 0.03162 µM) was 0.328, the relative viability ([17]; first compound 0.1 µM) was 0.311 and the relative viability ([17]; first compound 0.3162 µM) was 0.377. It also gave a relative viability ([17]; first compound 1 µM) of 0.431, a relative viability ([18]; first compound 0.01 µM) of 0.405 and a relative viability ([18]; first compound 0.03162 µM) of 0.411. The relative viability ([18]; first compound 0.1 µM) was 0.487, the relative viability ([18]; first compound 0.3162 µM) was 0.454 and the relative viability ([18]; first compound 1 µM) was 0.389. The relative viability ([19]; first compound 0.01 µM) was 0.774, the relative viability ([19]; first compound 0.03162 µM) was 0.793 and the relative viability ([19]; first compound 0.1 µM) was 0.779. For the same compound, the relative viability ([19]; first compound 0.3162 µM) was 0.705, the relative viability ([19]; first compound 1 µM) was 0.448 and the relative viability ([20]; first compound 0.01 µM) was 0.628. It also gave a relative viability ([20]; first compound 0.03162 µM) of 0.485, a relative viability ([20]; first compound 0.1 µM) of 0.482 and a relative viability ([20]; first compound 0.3162 µM) of 0.481. The relative viability ([20]; first compound 1 µM) was 0.34, the relative viability ([21]; first compound 0.01 µM) was 0.333 and the relative viability ([21]; first compound 0.03162 µM) was 0.395. For the same compound, the relative viability ([21]; first compound 0.1 µM) was 0.4, the relative viability ([21]; first compound 0.3162 µM) was 0.363 and the relative viability ([21]; first compound 1 µM) was 0.389. For the same compound, the relative viability ([22]; first compound 0.01 µM) was 0.581, the relative viability ([22]; first compound 0.03162 µM) was 0.576 and the relative viability ([22]; first compound 0.1 µM) was 0.574. It also gave a relative viability ([22]; first compound 0.3162 µM) of 0.542 and a relative viability ([22]; first compound 1 µM) of 0.527.
